Patent publication US20110301245A1, “(R)-2-(3,4-DIMETHOXYPHENOL)-2-ISOPROPYL-6-AZAHEPTANITRIL FORMULAITONS, ANDTHE USE OF SUCH FORMULATIONS IN THE TREATMENT OF CONDITIONS MEDIATED BY THE SEROTONIN TRANSPORTER” (AGI THERAPEUTICS, PLC, priority 2010, published 2011)
Several values for one entry are separate records, joined by “and”; a condition that tells them apart may be missing. Identical values can stand only once. Like-named read-outs stand apart in the source and are kept apart here.

How the values were obtained:
5-HT transporter (h) = target: T1, 5-HT transporter (h) (Homo sapiens, UniProt P31645); test: 5-HT transporter (h) antagonist radioligand binding assay, human recombinant CHO cells, [3H]imipramine
T1 construct: expressed in transfected cells; host or cells: CHO cells
T1 sequence (P31645 whole entry): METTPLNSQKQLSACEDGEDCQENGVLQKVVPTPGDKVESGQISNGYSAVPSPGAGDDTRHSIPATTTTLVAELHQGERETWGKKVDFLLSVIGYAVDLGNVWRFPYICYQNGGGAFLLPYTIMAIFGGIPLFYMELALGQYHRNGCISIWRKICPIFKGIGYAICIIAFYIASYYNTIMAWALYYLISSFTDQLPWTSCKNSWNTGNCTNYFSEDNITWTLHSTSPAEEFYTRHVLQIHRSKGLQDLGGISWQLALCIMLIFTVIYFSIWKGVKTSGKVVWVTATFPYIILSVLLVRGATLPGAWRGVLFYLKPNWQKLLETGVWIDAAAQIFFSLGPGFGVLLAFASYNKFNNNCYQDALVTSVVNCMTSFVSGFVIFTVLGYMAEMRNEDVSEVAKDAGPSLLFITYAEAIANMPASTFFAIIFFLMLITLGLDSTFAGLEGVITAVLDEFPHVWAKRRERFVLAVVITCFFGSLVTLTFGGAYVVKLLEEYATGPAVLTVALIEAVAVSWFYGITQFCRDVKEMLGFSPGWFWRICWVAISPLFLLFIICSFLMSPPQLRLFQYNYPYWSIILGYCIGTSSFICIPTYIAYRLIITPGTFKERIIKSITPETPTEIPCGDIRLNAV
From the text: For its discussion of the assay method, Tatsumi et al. is incorporated herein by reference in its entirety.
The specific ligand binding to the receptors is defined as the difference between the total binding and the nonspecific binding determined in the presence of an excess of unlabelled ligand.
The results are expressed as a percent of control specific binding ((measured specific binding/control specific binding)×100) and as a percent inhibition of control specific binding (100−((measured specific binding/control specific binding)×100)) obtained in the presence of (R)-2-(3,4-dimethoxyphenol)-2-isopropyl-6-azaheptanitril.
(§1) The IC50 values (concentration causing a half-maximal inhibition of control specific binding) and Hill coefficients (nH) were determined by non-linear regression analysis of the competition curves generated with mean replicate values using Hill equation curve fitting (Y=D+[(A−D)/(1+(C/C50)^nH)], where Y=specific binding, D=minimum specific binding, A=maximum specific binding, C=compound concentration, C50=IC50, and nH=slope factor).
The inhibition constants (Ki) were calculated using the Cheng Prusoff equation (Ki=IC50/(1+(L/KD)), where L=concentration of radioligand in the assay, and KD=affinity of the radioligand for the receptor).

[1] = target: T2, 5-HT uptake (rat brain synaptosomes) (Rattus norvegicus, UniProt P31652); test: In vitro 5-HT uptake assay using rat brain synaptosomes; type: biochemical; conditions: for % of Control Values, 1st / % of Control Values, 2nd / % of Control Values, Mean: Table 2-2
T2 construct: from tissue; host or cells: rat brain synaptosomes
T2 sequence (P31652 whole entry): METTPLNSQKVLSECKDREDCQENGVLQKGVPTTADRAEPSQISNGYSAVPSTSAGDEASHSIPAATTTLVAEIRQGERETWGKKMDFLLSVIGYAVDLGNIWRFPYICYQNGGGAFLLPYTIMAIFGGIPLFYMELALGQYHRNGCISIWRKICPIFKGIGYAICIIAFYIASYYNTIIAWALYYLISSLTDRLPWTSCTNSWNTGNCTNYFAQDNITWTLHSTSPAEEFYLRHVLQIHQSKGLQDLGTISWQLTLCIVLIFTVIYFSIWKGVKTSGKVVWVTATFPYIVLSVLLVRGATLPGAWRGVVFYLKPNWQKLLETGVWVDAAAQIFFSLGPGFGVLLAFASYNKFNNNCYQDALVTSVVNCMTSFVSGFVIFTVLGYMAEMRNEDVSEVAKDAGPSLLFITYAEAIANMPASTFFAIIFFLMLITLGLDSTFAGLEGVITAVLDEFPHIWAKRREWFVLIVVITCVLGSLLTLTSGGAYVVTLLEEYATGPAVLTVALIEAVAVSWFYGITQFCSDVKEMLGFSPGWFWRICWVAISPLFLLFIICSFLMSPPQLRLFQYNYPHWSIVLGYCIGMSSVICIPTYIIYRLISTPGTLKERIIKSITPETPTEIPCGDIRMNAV
Description: Briefly, the uptake assay was performed using rat brain synaptosomes according to the method generally described in Perovic and Muller, Arzneim-Forsch. […] For its disclosure of the above-noted assay, Perovic and Muller is incorporated herein by reference in its entirety.
The results are expressed as a percent of control specific activity ((measured specific activity/control specific activity)×100) obtained in the presence of (R)-2-(3,4-dimethoxyphenol)-2-isopropyl-6-azaheptanitril.
as §1, with “activity)” for “binding)”, “inhibition” for “competition”, “activity,” for “binding,”, “C50=IC50” for “C50=IC50,”

[2] = tested on: male wistar rats with Monocrotaline-induced PAH; test: Inhibition of PAH development, monocrotaline-induced pulmonary arterial hypertension; type: in vivo, rat; conditions: Mct 60 mg/kg sc, 5 mg/kg IP daily for 21 days
Description: Experimental pulmonary arterial hypertension (PAH) was induced in male wistar rats (Charles River Laboratories) weighing between 250 and 300 g by subcutaneous injection of 60 mg/kg Monocrotaline (Met) on Day 1. The Mct (Sigma Aldrich) was dissolved in 1N HCl at a concentration of 300 mg/ml as per M. Rey et al., Current Protocols in Pharmacology, 5.56.1-5.56.11, September 2009, which document is incorporated by reference herein in its entirety. Mct was then neutralized by adding 1N NaOH and diluted with sterile distilled water to a final concentration of 20 mg/ml. An injection volume of 3 ml/kg was used to achieve the 60 mg/kg dose.
A total of 44 rats were injected as follows: 15 rats were injected subcutaneously with Mct (untreated PAH controls), 15 rats were injected subcutaneously with Mct followed by daily IP injection with 5 mg/kg (R)-2-(3,4-dimethoxyphenol)-2-isopropyl-6-azaheptanitril for 21 days (R-D617 treated group), and 14 rats were injected subcutaneously with neutralized solvent having no Mct (non-PAH controls (sham)).
All animals were then housed (allowed food and water ad lib). The animals were anaesthetized 21 days after injection, and pulmonary arterial pressure was measured and expressed as mean pulmonary arterial pressure (mPAP mmHg). A terminal sample was also obtained and used to obtain terminal drug concentrations. […]

[3] = Terminal plasma drug concentrations by HPLC in the PAH study; type: in vivo; conditions: rat, 5 mg/kg IP daily for 21 days
Description: All animals were then housed (allowed food and water ad lib). The animals were anaesthetized 21 days after injection, and pulmonary arterial pressure was measured and expressed as mean pulmonary arterial pressure (mPAP mmHg). A terminal sample was also obtained and used to obtain terminal drug concentrations. Following exsanguination, cardiac tissues were excised and used to assess the wet weight of the right cardiac ventricle.

[4] = tested on: other receptors tested, including calcium channels; test: Single high concentration test on other receptors (data not included); type: binding; conditions: single high concentration 1×10^−5M
[5] = % of the potency of verapamil; cited from earlier work
p-glycoprotein = p-glycoprotein (Homo sapiens, UniProt P08183); conditions: prior non-clinical studies; cited from earlier work
p-glycoprotein, sequence (P08183 whole entry): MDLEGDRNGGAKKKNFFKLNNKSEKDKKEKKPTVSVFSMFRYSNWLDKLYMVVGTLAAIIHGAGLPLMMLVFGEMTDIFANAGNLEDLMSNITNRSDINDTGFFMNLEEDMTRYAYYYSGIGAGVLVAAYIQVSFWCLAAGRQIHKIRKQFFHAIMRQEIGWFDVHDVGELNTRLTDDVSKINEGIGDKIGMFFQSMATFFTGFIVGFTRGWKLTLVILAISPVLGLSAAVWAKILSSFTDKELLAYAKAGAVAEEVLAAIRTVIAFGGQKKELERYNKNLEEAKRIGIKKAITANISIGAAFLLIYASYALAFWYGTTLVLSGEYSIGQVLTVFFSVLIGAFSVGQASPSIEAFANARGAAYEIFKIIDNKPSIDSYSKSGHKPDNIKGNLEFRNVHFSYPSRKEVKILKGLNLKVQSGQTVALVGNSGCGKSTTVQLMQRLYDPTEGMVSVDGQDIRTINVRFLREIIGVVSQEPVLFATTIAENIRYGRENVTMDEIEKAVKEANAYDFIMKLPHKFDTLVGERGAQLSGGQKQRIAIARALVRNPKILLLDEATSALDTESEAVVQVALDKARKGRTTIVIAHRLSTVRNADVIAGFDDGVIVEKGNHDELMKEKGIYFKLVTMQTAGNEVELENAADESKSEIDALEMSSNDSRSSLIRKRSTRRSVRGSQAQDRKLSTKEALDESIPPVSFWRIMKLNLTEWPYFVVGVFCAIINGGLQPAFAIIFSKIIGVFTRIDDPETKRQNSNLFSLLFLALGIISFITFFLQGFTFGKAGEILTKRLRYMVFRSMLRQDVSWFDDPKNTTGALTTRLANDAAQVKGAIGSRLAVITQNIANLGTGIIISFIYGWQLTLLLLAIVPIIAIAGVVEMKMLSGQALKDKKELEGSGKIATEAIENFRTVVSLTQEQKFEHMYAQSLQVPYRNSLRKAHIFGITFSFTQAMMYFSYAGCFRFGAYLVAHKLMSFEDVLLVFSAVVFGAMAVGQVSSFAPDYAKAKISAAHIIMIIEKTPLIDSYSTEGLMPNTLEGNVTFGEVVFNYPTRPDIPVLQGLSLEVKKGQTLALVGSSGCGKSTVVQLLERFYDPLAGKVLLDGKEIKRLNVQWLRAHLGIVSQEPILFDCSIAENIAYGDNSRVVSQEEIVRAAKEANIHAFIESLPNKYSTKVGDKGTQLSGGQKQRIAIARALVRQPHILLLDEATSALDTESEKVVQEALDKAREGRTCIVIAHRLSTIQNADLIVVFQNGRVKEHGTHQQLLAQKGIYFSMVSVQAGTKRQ

CYP = conditions: prior non-clinical studies; cited from earlier work
HERG = HERG (Homo sapiens, UniProt Q12809); conditions: prior non-clinical studies; cited from earlier work
HERG, sequence (Q12809 whole entry): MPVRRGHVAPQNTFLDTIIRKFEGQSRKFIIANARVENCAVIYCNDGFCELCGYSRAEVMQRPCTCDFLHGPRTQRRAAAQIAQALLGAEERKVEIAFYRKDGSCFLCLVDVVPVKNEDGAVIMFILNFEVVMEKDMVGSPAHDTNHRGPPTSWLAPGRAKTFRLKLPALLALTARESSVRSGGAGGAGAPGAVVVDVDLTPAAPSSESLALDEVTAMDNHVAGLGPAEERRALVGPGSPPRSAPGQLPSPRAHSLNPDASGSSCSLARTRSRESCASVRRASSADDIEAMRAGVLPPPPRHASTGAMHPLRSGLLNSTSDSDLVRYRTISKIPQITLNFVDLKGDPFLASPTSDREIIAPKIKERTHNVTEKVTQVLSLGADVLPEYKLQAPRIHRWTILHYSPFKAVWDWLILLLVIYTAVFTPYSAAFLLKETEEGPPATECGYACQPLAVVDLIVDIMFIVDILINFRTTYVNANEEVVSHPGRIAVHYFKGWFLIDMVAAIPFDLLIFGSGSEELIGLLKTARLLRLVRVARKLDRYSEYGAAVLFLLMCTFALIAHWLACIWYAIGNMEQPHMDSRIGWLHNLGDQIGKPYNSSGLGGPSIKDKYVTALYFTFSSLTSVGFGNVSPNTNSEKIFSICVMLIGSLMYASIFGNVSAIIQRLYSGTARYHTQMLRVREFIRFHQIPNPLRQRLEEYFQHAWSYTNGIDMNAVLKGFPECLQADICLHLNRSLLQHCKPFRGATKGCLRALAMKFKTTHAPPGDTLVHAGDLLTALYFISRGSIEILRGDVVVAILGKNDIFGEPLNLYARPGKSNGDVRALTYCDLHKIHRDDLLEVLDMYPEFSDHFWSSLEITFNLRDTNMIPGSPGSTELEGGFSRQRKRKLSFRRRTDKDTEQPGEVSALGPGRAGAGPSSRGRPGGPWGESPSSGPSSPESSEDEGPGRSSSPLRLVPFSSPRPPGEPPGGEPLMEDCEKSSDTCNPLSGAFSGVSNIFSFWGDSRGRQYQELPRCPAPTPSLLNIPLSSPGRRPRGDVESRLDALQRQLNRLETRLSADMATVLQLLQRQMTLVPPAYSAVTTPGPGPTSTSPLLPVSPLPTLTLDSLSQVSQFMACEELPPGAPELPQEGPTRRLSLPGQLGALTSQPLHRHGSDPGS

For `CN(C)CCCN1c2ccccc2CCc2ccccc21` [imipramine, reference compound], the “nH (Hill coefficient)” value (5-HT transporter (h)) was 0.9 and 1.2.

In the case of `CNCCC[C@](C#N)(c1ccc(OC)c(OC)c1)C(C)C` [(R)-2-(3,4-dimethoxyphenol)-2-isopropyl-6-azaheptanitril], the “% Inhibition of Control Specific Binding” value (5-HT transporter (h); Table 1-1, test concentration 1.0E−05 M) is reported as 100%, the “% of Control Specific Binding, 1st” value (5-HT transporter (h); Table 1-2, 1.0E−05 M) is reported as −0.6% and the “% of Control Specific Binding, 2nd” value (5-HT transporter (h); Table 1-2, 1.0E−05 M) is reported as 0.8%. The “% of Control Specific Binding, Mean” value (5-HT transporter (h); Table 1-2, 1.0E−05 M) was 0.1%, the “nH (Hill coefficient)” value (5-HT transporter (h); Table 1-4) was 1.0 and the Ki (5-HT transporter (h); Table 1-4, Cheng Prusoff) was 22 nM. For the same compound, the “% of Control Specific Binding, 1st” value (5-HT transporter (h); Table 1-5, 1.0E−05 M) was 0.5%, the “% of Control Specific Binding, 2nd” value (5-HT transporter (h); Table 1-5, 1.0E−05 M) was 0.2% and the “% of Control Specific Binding, Mean” value (5-HT transporter (h); Table 1-5, 1.0E−05 M) was 0.3%. The “% of Control Specific Binding, 1st” value (5-HT transporter (h); Table 1-5, 1.0E−06 M) was 5.9%, the “% of Control Specific Binding, 2nd” value (5-HT transporter (h); Table 1-5, 1.0E−06 M) was 3.7% and the “% of Control Specific Binding, Mean” value (5-HT transporter (h); Table 1-5, 1.0E−06 M) was 4.8%. For the same compound, the “% of Control Specific Binding, 1st” value (5-HT transporter (h); Table 1-5, 1.0E−07 M) was 36.5%, the “% of Control Specific Binding, 2nd” value (5-HT transporter (h); Table 1-5, 1.0E−07 M) was 32.5% and the “% of Control Specific Binding, Mean” value (5-HT transporter (h); Table 1-5, 1.0E−07 M) was 34.5%. For the same compound, the “% of Control Specific Binding, 1st” value (5-HT transporter (h); Table 1-5, 1.0E−08 M) was 83.3%, the “% of Control Specific Binding, 2nd” value (5-HT transporter (h); Table 1-5, 1.0E−08 M) was 84.8% and the “% of Control Specific Binding, Mean” value (5-HT transporter (h); Table 1-5, 1.0E−08 M) was 84.0%. For the same compound, the “% of Control Specific Binding, 1st” value (5-HT transporter (h); Table 1-5, 3.0E−07 M) was 15.3%, the “% of Control Specific Binding, 2nd” value (5-HT transporter (h); Table 1-5, 3.0E−07 M) was 13.1% and the “% of Control Specific Binding, Mean” value (5-HT transporter (h); Table 1-5, 3.0E−07 M) was 14.2%. For the same compound, the “% of Control Specific Binding, 1st” value (5-HT transporter (h); Table 1-5, 3.0E−08 M) was 66.6%, the “% of Control Specific Binding, 2nd” value (5-HT transporter (h); Table 1-5, 3.0E−08 M) was 58.0% and the “% of Control Specific Binding, Mean” value (5-HT transporter (h); Table 1-5, 3.0E−08 M) was 62.3%. For the same compound, the “% of Control Specific Binding, 1st” value (5-HT transporter (h); Table 1-5, 3.0E−09 M) was 101.5%, the “% of Control Specific Binding, 2nd” value (5-HT transporter (h); Table 1-5, 3.0E−09 M) was 88.4% and the “% of Control Specific Binding, Mean” value (5-HT transporter (h); Table 1-5, 3.0E−09 M) was 94.9%. The “% of Control Specific Binding, 1st” value (5-HT transporter (h); Table 1-5, 3.0E−10 M) was 104.1%, the “% of Control Specific Binding, 2nd” value (5-HT transporter (h); Table 1-5, 3.0E−10 M) was 102.0% and the “% of Control Specific Binding, Mean” value (5-HT transporter (h); Table 1-5, 3.0E−10 M) was 103.1%. For the same compound, the IC50 (5-HT transporter (h); read-out: IC50 for inhibition of binding at the serotonin transporter) was 47 nM, the “inhibition of the serotonin transporter” value (5-HT transporter (h); single high concentration 1×10^−5M) was 100% and the IC50 ([1]; Table 2-1, 5-HT uptake) was 240 nM. The “% of Control Values, 1st” value ([1]; 1.0E−05 M) was 1.0%, the “% of Control Values, 2nd” value ([1]; 1.0E−05 M) was 5.2% and the “% of Control Values, Mean” value ([1]; 1.0E−05 M) was 3.1%. The “% of Control Values, 1st” value ([1]; 1.0E−06 M) was 22.1%, the “% of Control Values, 2nd” value ([1]; 1.0E−06 M) was 21.1% and the “% of Control Values, Mean” value ([1]; 1.0E−06 M) was 21.6%. The “% of Control Values, 1st” value ([1]; 1.0E−07 M) was 79.8%, the “% of Control Values, 2nd” value ([1]; 1.0E−07 M) was 81.9% and the “% of Control Values, Mean” value ([1]; 1.0E−07 M) was 80.8%. For the same compound, the “% of Control Values, 1st” value ([1]; 1.0E−08 M) was 101.7%, the “% of Control Values, 2nd” value ([1]; 1.0E−08 M) was 94.0% and the “% of Control Values, Mean” value ([1]; 1.0E−08 M) was 97.9%. For the same compound, the “% of Control Values, 1st” value ([1]; 3.0E−07 M) was 47.8%, the “% of Control Values, 2nd” value ([1]; 3.0E−07 M) was 44.9% and the “% of Control Values, Mean” value ([1]; 3.0E−07 M) was 46.3%. The “% of Control Values, 1st” value ([1]; 3.0E−08 M) was 108.1%, the “% of Control Values, 2nd” value ([1]; 3.0E−08 M) was 82.8% and the “% of Control Values, Mean” value ([1]; 3.0E−08 M) was 95.4%. The “% of Control Values, 1st” value ([1]; 3.0E−09 M) was 100.2%, the “% of Control Values, 2nd” value ([1]; 3.0E−09 M) was 113.4% and the “% of Control Values, Mean” value ([1]; 3.0E−09 M) was 106.8%. The “% of Control Values, 1st” value ([1]; 3.0E−10 M) was 113.5%, the “% of Control Values, 2nd” value ([1]; 3.0E−10 M) was 113.3% and the “% of Control Values, Mean” value ([1]; 3.0E−10 M) was 113.4%. For the same compound, the “mPAP (Mean +/− SEM)” value ([2]; measured 21 days after injection, untreated PAH control 36.0, sham 14.7) was 30.0 +/− 2.5 mmHg, the “Right Ventricle Weight (Mean +/− SEM)” value ([2]; wet weight, untreated PAH control 317.9, sham 167.4) was 288.7 +/− 13.4 and the “mean terminal plasma concentration of (R)-2-(3,4-dimethoxyphenol)-2-isopropyl-6-azaheptanitril” value ([3]; R-D617 treated group) was 18.5 ng/mL. For the same compound, the “terminal plasma concentration of R-verapamil after R-D617 treatment” value ([3]; lower limit of quantification 1 ng/ml) was under 1 ng/mL, the “R-verapamil measured in terminal plasma of the R-D617 treated group” value ([3]; result in words) was “no quantifiable R-verapamil” and the “inhibition at the majority of the other receptors tested” value [4] was under 75%.

In the case of `CNCCCC(C#N)(c1ccc(OC)c(OC)c1)C(C)C` [D-617, 2-(3,4-dimethoxyphenol)-2-isopropyl-6-azaheptanitril], the “cardiovascular potency compared with verapamil” value [5] is given as 2.6%, the “p-glycoprotein transport: substrate / inhibitor” value (p-glycoprotein) is given as “substrate for, but not an inhibitor of” and the “CYP-mediated metabolism: substrate / inhibitor” value (CYP) is given as “substrate for but not a potent inhibitor of”. For the same compound, the “block of HERG-induced currents” value (HERG) was “does not block”.

In the case of `COc1ccc(CCNCCCC(C#N)(c2ccc(OC)c(OC)c2)C(C)C)cc1OC` (stereo not drawn) [nor-verapamil], the “cardiovascular potency compared with verapamil” value [5] is listed as 21.9%.
